Experimental data from publication PMC9737391, “Trifluoromethylcinnamanilide Michael Acceptors for Treatment of Resistant Bacterial Infections” (International Journal of Molecular Sciences, 2022).
In brackets after ≈: the same amount, converted by molar mass. Several values for one entry are separate records, joined by “and”; a condition that tells them apart may be missing. Equal values may be shown once.

Key:
[1] = tested on: Enterococcus faecalis ATCC 29212; assay: MBC, agar aliquot subculture method; assay type: cell-based; details: ATCC29212, E. faecalis reference strain
[2] = tested on: S. aureus ATCC 29213; assay: MTT assay, inhibition of bacterial respiration; assay type: cell-based, Staphylococcus aureus
Excerpt: The MTT assay can be used to assess cell growth by measuring respiration. Respiratory activity of bacterial cells (which is finally reflected in their viability) less than 70% after exposure to the MIC values for each tested compound is considered as a positive result of this assay. This low level of cell oxidative metabolism indicates inhibition of cell growth by inhibition of respiration. The lowest multiples of MIC values that achieved more than 70% inhibition of S. aureus ATCC 29213 viability (%) are shown in Table 3.
The percent inhibition of respiration of S. aureus ATCC 29213 was determined through the MTT assay. The assay was performed as described recently. The percent viability is calculated through the comparison of a measured value and that of the uninhibited control: % viability = OD570E/OD570P × 100, where OD570E is the reading from the compound-exposed cells, while OD570P is the reading from the uninhibited cells (positive control). Cytotoxic potential is determined by a percent viability of <70% [46, 47].

[3] = tested on: vancomycin-resistant E. faecalis VRE 342B (VRE1); assay: MIC, microtitration broth method; assay type: cell-based, Enterococcus faecalis
[4] = tested on: S. aureus/MRSA; assay: Antistaphylococcal activity, summary over strains; assay type: cell-based, Staphylococcus aureus
[5] = tested on: methicillin-resistant S. aureus SA 3202 (MRSA1); assay: MIC, microtitration broth method; assay type: cell-based; details: Staphylococcus aureus; MRSA SA 3202
[6] = tested on: Staphylococcus aureus ATCC 29213; assay: MIC, microtitration broth method; assay type: cell-based; details: ATCC29213, S. aureus ATCC 29213
[7] = tested on: methicillin-resistant S. aureus SA 630 (MRSA2); assay: MIC, microtitration broth method; assay type: cell-based; details: Staphylococcus aureus; MRSA SA 630
[8] = tested on: vancomycin-resistant E. faecalis VRE 368 (VRE2); assay: MBC, agar aliquot subculture method; assay type: cell-based, Enterococcus faecalis
[9] = tested on: methicillin-resistant S. aureus 63718 (MRSA3); assay: MBC, agar aliquot subculture method; assay type: cell-based; details: Staphylococcus aureus; MRSA 63718
[10] = tested on: Staphylococcus aureus ATCC 29213; assay: MBC, agar aliquot subculture method; assay type: cell-based; details: ATCC29213, S. aureus ATCC 29213
[11] = Lipophilicity determination by RP-HPLC; assay type: physicochemical; details: RP-HPLC, logarithm of capacity factor k
Description: It is evident from the graphs in Figure 1 that the correlation coefficients of the dependences of log k/log D6.5/log D7.4 have a value of r = 0.999 (n = 32), which means that the investigated compounds behave insignificantly differently in aqueous media with different pH. Moreover, lipophilicity was calculated as log P and Clog P using two prediction programs. […] Therefore, only log P values predicted by ACD/Percepta can be used for correlations with experimental values. These matches are shown in the graphs in Figure 2, and according to the correlation coefficient r~0.940 (n = 32), it can be argued that even the predicted lipophilicity values correlate with the experimentally measured ones. However, the largest variations were observed (no difference for series 1, 2) for compounds substituted with 2-Cl, 2-CF3, 2,5-Cl, 4-F, 4-CF3, and 3,5-F, 3,5-Cl. These are mainly substituents capable of forming hydrogen and other types of non-bonding interactions both with the surrounding environment and within the molecule. Overall, series 1 (3-CF3) is less lipophilic than series 2 (4-CF3), but the differences in the experimental data are insignificant. Unsubstituted derivatives 1a/2a are the least lipophilic compounds, while derivatives 1o/2o (3,5-Cl) and 1p/2p (3,5-CF3) are the most lipophilic compounds.
Experimental determination of lipophilicity values (log k, log D6.5, and log D7.4) was performed under the same conditions and on the same device as described by Strharsky et al..

[12] = tested on: M. smegmatis ATCC 700084; assay: In vitro antimycobacterial evaluation (MIC); assay type: cell-based, Mycobacterium smegmatis
[13] = tested on: methicillin-resistant S. aureus SA 630 (MRSA2); assay: MBC, agar aliquot subculture method; assay type: cell-based; details: Staphylococcus aureus; MRSA SA 630
[14] = tested on: vancomycin-resistant E. faecalis VRE 342B (VRE1); assay: MBC, agar aliquot subculture method; assay type: cell-based, Enterococcus faecalis
[15] = tested on: vancomycin-resistant E. faecalis VRE 725B (VRE3); assay: MBC, agar aliquot subculture method; assay type: cell-based, Enterococcus faecalis
[16] = tested on: human monocytic leukemia cell line THP-1; assay: In vitro cell viability (cytotoxicity screening); assay type: cell-based; details: 24 h, medium with 10% FBS, ± SD, n = 6
Description: The investigated anilides can be divided into three groups. […] Higher concentrations (than 10 or 30 µM) were not possible to evaluate due to precipitation of the tested compounds in water medium. Based on all these observations, it can be concluded that the high antimicrobial activity of 3,5-CF3-substituted compounds is associated with significant cytotoxic effect against eukaryotic cells. On the other hand, the other still effective compounds, especially agents 1j and 1o, have an insignificant toxic effect, which makes them interesting for further study.
Human monocytic leukemia THP-1 cells obtained from the European Collection of Cell Cultures (ECACC, Salisbury, UK) were used for in vitro antiproliferative assays. A recently described procedure was used.

[17] = tested on: methicillin-resistant S. aureus 63718 (MRSA3); assay: MIC, microtitration broth method; assay type: cell-based; details: Staphylococcus aureus; MRSA 63718
[18] = tested on: vancomycin-resistant E. faecalis VRE 725B (VRE3); assay: MIC, microtitration broth method; assay type: cell-based, Enterococcus faecalis
[19] = tested on: vancomycin-resistant E. faecalis VRE 368 (VRE2); assay: MIC, microtitration broth method; assay type: cell-based, Enterococcus faecalis
[20] = tested on: E. faecalis/VRE; assay: Anti-enterococcal activity, summary over strains; assay type: cell-based, Enterococcus faecalis
[21] = tested on: Enterococcus faecalis ATCC 29212; assay: MIC, microtitration broth method; assay type: cell-based; details: ATCC29212, E. faecalis reference strain
[22] = tested on: methicillin-resistant S. aureus SA 3202 (MRSA1); assay: MBC, agar aliquot subculture method; assay type: cell-based; details: Staphylococcus aureus; MRSA SA 3202
[23] = tested on: M. tuberculosis H37Ra; design: method as in ref 26 = [26]; PMID 30087309; doi:10.3390/ijms19082318; 26. Pospisilova S. Kos J. Michnova H. Kapustikova I. Strharsky T. Oravec M. Moricz A.M. Bakonyi J. Kauerova T. Kollar P. Synthesis and spectrum of biological activities of novel N -arylcinnamamides In; details: average over the named compounds; cited from earlier work
[24] = tested on: Mycobacterium marinum CAMP 5644; assay: In vitro antimycobacterial evaluation (MIC); assay type: cell-based; details: Mycobacterium marinum, CAMP5644, M. marinum CAMP 5644

SMILES | MBC [1] [µM] | Conc.: lowest multiple of MIC with at least 70% inhibition of respiratory activity [2] | Conc.: the same concentration as multiple of MBC [2] | MIC [3] [µM] | MIC [5] [µM] | MIC [6] [µM] | MIC [7] [µM] | MBC [8] [µM] | MBC [9] [µM] | MBC [10] [µM] | MBC [13] [µM] | MBC [14] [µM] | MBC [15] [µM] | MIC [17] [µM] | MIC [18] [µM] | MIC [19] [µM] | MIC [21] [µM] | MBC [22] [µM] | further results
O=C(/C=C/c1ccc(C(F)(F)F)cc1)Nc1cccc(C(F)(F)F)c1 [2i, (2E)-N-[3-(Trifluoromethyl)phenyl]-3-[4-(trifluoromethyl)phenyl]prop-2-enamide] | 11.1 (≈ 3.99 µg/mL) | 1× MIC (1× MBC) | 1× MIC (1× MBC) | 11.1 (≈ 3.99 µg/mL) | 2.78 (≈ 0.999 µg/mL) | 1.39 (≈ 0.499 µg/mL) | 1.39 (≈ 0.499 µg/mL) | 44.5 (≈ 16 µg/mL) | 2.78 (≈ 0.999 µg/mL) | 1.39 (≈ 0.499 µg/mL) | 1.39 (≈ 0.499 µg/mL) | 22.3 (≈ 8.01 µg/mL) | 11.1 (≈ 3.99 µg/mL) | 2.78 (≈ 0.999 µg/mL) | 11.1 (≈ 3.99 µg/mL) | 11.1 (≈ 3.99 µg/mL) | 11.1 (≈ 3.99 µg/mL) | 2.78 (≈ 0.999 µg/mL) | MIC ([4]; Staphylococcus aureus, MRSA, average over the named compounds and strains, read-out: average MIC against S. aureus/MRSA): ~1.4 µM (≈ 0.503 µg/mL); antistaphylococcal MICs/MBCs ([4]; range over S. aureus and MRSA isolates and over the named compounds): 0.15 to 5.57 µM and 0.146 to 5.57 µM; log k [11]: 0.8867; MIC MS [12]: no effect; IC50 [16]: > 10 µM; MIC ([20]; Enterococcus faecalis, VRE, average over the named compounds and strains, read-out: average MIC against E. faecalis/VRE): ~15 µM (≈ 5.39 µg/mL); anti-enterococcal MICs/MBCs ([20]; range over E. faecalis and VRE isolates and over the named compounds): 2.34 to 44.5 µM; melting point: 134 to 136 °C
O=C(/C=C/c1ccccc1)Nc1ccc(Cl)c(Cl)c1 [3e] | – | – | – | – | – | – | – | – | – | – | – | – | – | – | – | – | – | – | average MIC against M. tuberculosis H37Ra [23]: ~ 24 µM
CC1(C)S[C@@H]2[C@H](NC(=O)[C@H](N)c3ccccc3)C(=O)N2[C@H]1C(=O)O [AMP, ampicillin, reference compound] | 2.81 (≈ 0.982 µg/mL) | 8× MIC (>8× MBC) | 8× MIC (>8× MBC) | 11.5 (≈ 4.02 µg/mL) | 45.8 (≈ 16 µg/mL) | 5.72 (≈ 2 µg/mL) | 45.8 (≈ 16 µg/mL) | 11.5 (≈ 4.02 µg/mL) | > 45.8 | > 5.72 | > 45.8 | 11.5 (≈ 4.02 µg/mL) | 11.5 (≈ 4.02 µg/mL) | 45.8 (≈ 16 µg/mL) | 11.5 (≈ 4.02 µg/mL) | 11.5 (≈ 4.02 µg/mL) | 2.81 (≈ 0.982 µg/mL) | > 45.8 | –
NNC(=O)c1ccncc1 [INH, isoniazid, reference compound] | – | – | – | – | – | – | – | – | – | – | – | – | – | – | – | – | – | – | MIC [24]: 36.6 µM (≈ 5.02 µg/mL); MIC ([12]; Mycolicibacterium smegmatis, ATCC700084): 117 µM (≈ 16 µg/mL)
